Experimental data published in US20250215013A1, “SUBSTITUTED TRICYCLIC COMPOUNDS AS PARP INHIBITORS AND THE USE THEREOF” (IMPACT THERAPEUTICS (SHANGHAI), INC., priority 2022, published 2025).

Legend:
[1] = biological target: recombinant poly(ADP-ribose) polymerase 1 (PARP1) (Homo sapiens (Human), UniProt P09874)
[2] = tested on: MDA-MB-436 cells; test: Growth inhibition assay against BRCA mutant human breast cancer MDA-MB-436 cell line (CCK-8); format: cell-based; settings: proliferation of MDA-MB-436 cells, 7 days
[3] = biological target: recombinant poly(ADP-ribose) polymerase 2 (PARP2); test: PARP2 chemiluminescent assay; format: biochemical; settings: inhibition of PARP2 enzyme activity, chemiluminescence
[4] = biological target: PDE3A (Homo sapiens (Human), UniProt Q14432); test: PDE3A fluorescence polarization (FP) assay; format: biochemical; settings: PDE3A enzyme activity, FAM-cAMP substrate
PDE3A, sequence (Q14432 whole entry): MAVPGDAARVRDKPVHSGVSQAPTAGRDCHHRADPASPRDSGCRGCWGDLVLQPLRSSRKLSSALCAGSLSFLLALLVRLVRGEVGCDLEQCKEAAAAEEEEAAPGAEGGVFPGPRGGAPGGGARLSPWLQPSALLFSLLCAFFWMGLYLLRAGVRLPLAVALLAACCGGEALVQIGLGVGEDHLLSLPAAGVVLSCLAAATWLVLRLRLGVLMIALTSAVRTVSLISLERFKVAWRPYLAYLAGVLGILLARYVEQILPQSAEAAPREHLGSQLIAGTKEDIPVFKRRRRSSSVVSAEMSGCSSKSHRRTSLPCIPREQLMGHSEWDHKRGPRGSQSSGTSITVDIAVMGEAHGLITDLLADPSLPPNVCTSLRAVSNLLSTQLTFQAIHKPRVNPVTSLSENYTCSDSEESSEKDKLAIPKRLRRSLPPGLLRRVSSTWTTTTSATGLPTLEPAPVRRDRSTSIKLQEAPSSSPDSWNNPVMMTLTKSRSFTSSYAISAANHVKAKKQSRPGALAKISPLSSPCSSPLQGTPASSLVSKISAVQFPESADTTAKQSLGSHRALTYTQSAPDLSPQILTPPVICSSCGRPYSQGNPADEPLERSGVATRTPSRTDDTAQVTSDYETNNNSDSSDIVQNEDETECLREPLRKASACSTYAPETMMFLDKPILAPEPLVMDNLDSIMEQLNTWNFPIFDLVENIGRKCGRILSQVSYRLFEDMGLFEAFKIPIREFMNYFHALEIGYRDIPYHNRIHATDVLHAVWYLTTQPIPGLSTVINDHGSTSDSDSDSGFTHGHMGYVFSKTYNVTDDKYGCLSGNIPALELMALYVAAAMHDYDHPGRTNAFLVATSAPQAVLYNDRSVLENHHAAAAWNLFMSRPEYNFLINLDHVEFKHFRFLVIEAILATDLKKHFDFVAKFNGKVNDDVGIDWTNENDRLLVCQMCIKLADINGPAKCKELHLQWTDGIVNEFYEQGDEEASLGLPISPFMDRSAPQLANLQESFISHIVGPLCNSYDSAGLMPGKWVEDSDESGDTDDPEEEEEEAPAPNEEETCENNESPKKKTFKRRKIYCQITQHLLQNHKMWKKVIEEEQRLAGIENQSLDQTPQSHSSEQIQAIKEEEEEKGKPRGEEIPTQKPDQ
Procedure: A PDE3A fluorescence polarization (FP) assay in a multi-step format was performed using black, round bottom 384-well plates (Corning, 4514). The testing compounds were serially diluted from stock solutions to 11 concentrations with a 3-fold dilution factor using DMSO. Fifty nl of compound dilutions was mixed with 5 μl of reaction buffer (10 mM Tris-HCl, pH 7.2, 10 mM MgCl2, 0.05% NaN3, 0.1% phosphate-free BSA) containing 0.2 μM FAM-cAMP (BPS, 60200) and 2 nM PDE3A (Sino Biological, 11908-H20B1) enzyme, and incubated for 60 min at 25° C. Afterwards, 15 μl binding agent mixture (Molecular Devices, R8124) was added to each well and the plate was incubated for 60 min at 25° C. The plate was loaded to a BMG PHERAstar FSX to read Fluorescence Polarization (FP) values at a setting of: Ex: 485 nm and Em: 520 nm. Emission light intensity with polarizers parallel (Emi) and emission light intensity with polarizers perpendicular (Emi) were recorded. The Polarization (mP) values were calculated using the following formula: mP=(SignalEml−SignalEm⊥)/(SignalEml+SignalEm⊥).
• 1) The inhibition % of a compound dose is calculated as:
[formula] • wherein mPMin and mPMax refer to the polarization readings in the condition of substrate only and substrate+enzyme, respectively. • 2) The IC50 values were calculated from non-linear curve fitting using following regression equation using a commercial curve fitting software GraphPad Prism 9.2.0.
[formula] • wherein, X refers to Log of compound concentration and Y refers to % Inhibition.

recombinant poly(ADP-ribose) polymerase 1 (PARP1), sequence (P09874 whole entry): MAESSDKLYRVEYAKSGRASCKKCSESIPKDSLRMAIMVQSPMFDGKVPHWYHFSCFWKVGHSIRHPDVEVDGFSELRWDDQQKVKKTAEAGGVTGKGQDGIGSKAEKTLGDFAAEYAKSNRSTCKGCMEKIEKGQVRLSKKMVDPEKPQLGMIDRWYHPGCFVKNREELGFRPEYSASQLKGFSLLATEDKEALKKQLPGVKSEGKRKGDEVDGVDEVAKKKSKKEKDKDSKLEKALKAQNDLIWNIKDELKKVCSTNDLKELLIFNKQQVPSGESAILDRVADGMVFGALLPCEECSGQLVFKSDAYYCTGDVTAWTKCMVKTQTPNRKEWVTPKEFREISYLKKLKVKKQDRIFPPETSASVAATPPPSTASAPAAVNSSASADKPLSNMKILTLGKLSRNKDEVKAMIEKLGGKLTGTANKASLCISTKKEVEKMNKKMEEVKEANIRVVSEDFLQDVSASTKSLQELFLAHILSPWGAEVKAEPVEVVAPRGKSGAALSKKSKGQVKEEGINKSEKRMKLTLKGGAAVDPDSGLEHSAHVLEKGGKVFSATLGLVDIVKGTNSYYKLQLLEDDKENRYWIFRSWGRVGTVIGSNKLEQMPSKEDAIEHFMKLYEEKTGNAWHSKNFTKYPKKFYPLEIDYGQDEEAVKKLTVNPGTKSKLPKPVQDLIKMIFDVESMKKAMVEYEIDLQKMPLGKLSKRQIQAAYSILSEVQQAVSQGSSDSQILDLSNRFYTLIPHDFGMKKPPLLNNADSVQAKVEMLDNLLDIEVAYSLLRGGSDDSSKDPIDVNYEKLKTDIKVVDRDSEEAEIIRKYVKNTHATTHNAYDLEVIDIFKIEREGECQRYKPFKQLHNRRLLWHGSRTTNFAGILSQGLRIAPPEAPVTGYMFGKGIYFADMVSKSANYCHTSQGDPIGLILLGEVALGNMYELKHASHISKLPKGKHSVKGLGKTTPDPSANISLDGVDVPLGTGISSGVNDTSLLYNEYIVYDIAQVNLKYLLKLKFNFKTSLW

Question: With `CNC(=O)c1ccc(N2CCN(Cc3ccc4c([nH]c(=O)c5ccoc54)c3F)CC2)c(C)n1` [Example 43, 7-((4-(2-methyl-6-(methylcarbamoyl)pyridin-3-yl)piperazin-1-yl)methyl)-6-fluoro-furo[3,2-c]quinolin-4(5H)-one] as the molecule, how does the IC50 [1] read?
Answer: 0.39 nM

Question: What about the IC50 ([2]; Homo sapiens, MDA-MB-436, […]) of the same molecule?
Answer: 5.86 nM

Question: What about the IC50 [3] of the same molecule?
Answer: 5580 nM

Question: What about the IC50 [4] of the same molecule?
Answer: 8570 nM

Question: Which IC50 [1] does the source give for `CNC(=O)c1ccc(N2CCN(Cc3ccc4c([nH]c(=O)c5ccoc54)c3F)CC2)c(F)n1` [Example 44, 7-((4-(2-fluoro-6-(methylcarbamoyl)pyridin-3-yl)piperazin-1-yl)methyl)-6-fluoro-furo[3,2-c]quinolin-4(5H)-one] here?
Answer: 0.41 nM

Question: And the IC50 ([2]; Homo sapiens, MDA-MB-436, […])?
Answer: 3.85 nM

Question: And the IC50 [3]?
Answer: 898 nM

Question: And the IC50 [4]?
Answer: 16500 nM

Question: Which IC50 [1] does the source give for `CNC(=O)c1ccc(N2CCN(Cc3ccc4c([nH]c(=O)c5cn[nH]c54)c3F)CC2)c(F)n1` [Example 46, 7-((4-(2-fluoro-6-(methylcarbamoyl)pyridin-3-yl)piperazin-1-yl)methyl)-6-fluoro-1,5-dihydro-4H-pyrazolo[4,3-c]quinolin-4-one] here?
Answer: 0.95 nM

Question: What about the IC50 ([2]; Homo sapiens, MDA-MB-436, […]) of the same molecule?
Answer: 16.5 nM

Question: And the IC50 [3]?
Answer: 194 nM

Question: What about the IC50 [4] of the same molecule?
Answer: > 30000 nM

Question: How did the IC50 [1] turn out when `CNC(=O)c1ccc(N2CCN(Cc3ccc4c([nH]c(=O)n5cccc45)c3F)CC2)c(C)n1` [Example 48, 8-((4-(2-methyl-6-(methylcarbamoyl)pyridin-3-yl)piperazin-1-yl)methyl)-7-fluoropyrrolo[1,2-c]quinazolin-5(6H)-one] was run?
Answer: 1.76 nM

Question: And the IC50 ([2]; Homo sapiens, MDA-MB-436, […])?
Answer: 4.58 nM

Question: What about the IC50 [3] of the same molecule?
Answer: 1980 nM

Question: And the IC50 [4]?
Answer: > 30000 nM

Question: What does the source list for `CNC(=O)c1ccc(N2CCN(Cc3ccc4c([nH]c(=O)c5c(C)cnn54)c3F)CC2)c(C)n1` [Example 57, 7-((4-(2-methyl-6-(methylcarbamoyl)pyridin-3-yl)piperazin-1-yl)methyl)-6-fluoro-3-methylpyrazolo[1,5-a]quinoxalin-4(5H)-one]?
Answer: IC50 [1]: 1.95 nM; IC50 ([2]; Homo sapiens, MDA-MB-436, […]): 10.6 nM; IC50 [3]: > 10000 nM; IC50 [4]: > 30000 nM

Question: Which results are given for `CNC(=O)c1ccc(N2CCN(Cc3ccc4c([nH]c(=O)c5c(C)cnn54)c3F)CC2)c(F)n1` [Example 58, 7-((4-(2-fluoro-6-(methylcarbamoyl)pyridin-3-yl)piperazin-1-yl)methyl)-6-fluoro-3-methylpyrazolo[1,5-a]quinoxalin-4(5H)-one]?
Answer: IC50 [1]: 1.38 nM; IC50 ([2]; Homo sapiens, MDA-MB-436, […]): 2.99 nM; IC50 [3]: > 10000 nM; IC50 [4]: > 30000 nM

Question: With `CCNC(=O)c1ccc(N2CCN(Cc3ccc4c([nH]c(=O)c5occc54)c3F)CC2)c(F)n1` [Example 66, 7-((4-(2-fluoro-6-(ethylcarbamoyl)pyridin-3-yl)piperazin-1-yl)methyl)-6-fluorofuro[2,3-c]quinolin-4(5H)-one] as the molecule, how does the IC50 [1] read?
Answer: 1.72 nM

Question: And the IC50 ([2]; Homo sapiens, MDA-MB-436, […])?
Answer: 3.4 nM

Question: And the IC50 [3]?
Answer: 5000 nM

Question: And the IC50 [4]?
Answer: 16600 nM

Question: What does the source list for `CNC(=O)c1ccc(N2CCN(Cc3ccc4c([nH]c(=O)c5occc54)c3F)CC2)c(Cl)n1` [Example 68, 7-((4-(2-chloro-6-(methylcarbamoyl)pyridin-3-yl)piperazin-1-yl)methyl)-6-fluorofuro[2,3-c]quinolin-4(5H)-one]?
Answer: IC50 [1]: 0.52 nM; IC50 ([2]; Homo sapiens, MDA-MB-436, […]): 4.72 nM; IC50 [3]: 1870 nM; IC50 [4]: 22000 nM

Question: For `CNC(=O)c1ccc(N2CCN(Cc3ccc4c([nH]c(=O)c5cnn(C)c54)c3F)CC2)c(F)n1` [Example 92, 6-fluoro-7-((4-(2-fluoro-6-(methylcarbamoyl)pyridin-3-yl)piperazin-1-yl)methyl)-1-methyl-1,5-dihydro-4H-pyrazolo[4,3-c]quinolin-4-one], which IC50 [1] is on record?
Answer: 0.44 nM

Question: What about the IC50 ([2]; Homo sapiens, MDA-MB-436, […]) of the same molecule?
Answer: 3.48 nM

Question: What about the IC50 [3] of the same molecule?
Answer: 199 nM

Question: And the IC50 [4]?
Answer: > 30000 nM

Question: Which results are given for `CNC(=O)c1ccc(N2CCN(Cc3cc4[nH]c(=O)c5occc5c4cc3F)CC2)c(F)n1` [Example 102, 7-((4-(2-fluoro-6-(methylcarbamoyl)pyridin-3-yl)piperazin-1-yl)methyl)-8-fluorofuro[2,3-c]quinolin-4(5H)-one]?
Answer: IC50 [1]: 1.89 nM; IC50 ([2]; Homo sapiens, MDA-MB-436, […]): 5.5 nM; IC50 [3]: 1330 nM; IC50 [4]: > 30000 nM

Question: Which IC50 [1] does the source give for `CNC(=O)c1ccc(N2CCN(Cc3ccc4c(c3)[nH]c(=O)c3occc34)CC2)c(F)n1` [Example 112, 7-((4-(2-fluoro-6-(methylcarbamoyl)pyridin-3-yl)piperazin-1-yl)methyl)furo[2,3-c]quinolin-4(5H)-one] here?
Answer: 0.26 nM

Question: What about the IC50 ([2]; Homo sapiens, MDA-MB-436, […]) of the same molecule?
Answer: 0.58 nM

Question: What about the IC50 [3] of the same molecule?
Answer: 158 nM

Question: And the IC50 [4]?
Answer: 1300 nM

Question: Which results are given for `CNC(=O)c1ccc(N2CCN(Cc3ccc4c([nH]c(=O)c5cocc54)c3F)CC2)c(F)n1` [Example 115, 7-((4-(2-fluoro-6-(methylcarbamoyl)pyridin-3-yl)piperazin-1-yl)methyl)-6-fluorofuro[3,4-c]quinolin-4(5H)-one]?
Answer: IC50 [1]: 0.47 nM; IC50 ([2]; Homo sapiens, MDA-MB-436, […]): 3.41 nM; IC50 [3]: 340 nM; IC50 [4]: 13800 nM

Question: With `CNC(=O)c1ccc(N2CCN(Cc3ccc4c([nH]c(=O)c5c(F)cnn54)c3F)CC2)c(C)n1` [Example 121, 7-((4-(2-methyl-6-(methylcarbamoyl)pyridin-3-yl)piperazin-1-yl)methyl)-3,6-difluoropyrazolo[1,5-a]quinoxalin-4(5H)-one] as the molecule, how does the IC50 [1] read?
Answer: 1.06 nM

Question: What about the IC50 ([2]; Homo sapiens, MDA-MB-436, […]) of the same molecule?
Answer: 1.72 nM

Question: And the IC50 [3]?
Answer: 2820 nM

Question: And the IC50 [4]?
Answer: 10500 nM

Question: Which IC50 [1] does the source give for `CNC(=O)c1ccc(N2CCN(Cc3ccc4c([nH]c(=O)c5c(F)cnn54)c3F)CC2)c(F)n1` [Example 122, 7-((4-(2-fluoro-6-(methylcarbamoyl)pyridin-3-yl)piperazin-1-yl)methyl)-3,6-difluoropyrazolo[1,5-a]quinoxalin-4(5H)-one] here?
Answer: 0.53 nM

Question: What about the IC50 [2] of the same molecule?
Answer: 1.32 nM

Question: What about the IC50 [3] of the same molecule?
Answer: 462 nM

Question: And the IC50 [4]?
Answer: > 30000 nM

Question: For `Cc1cnn2c1c(=O)[nH]c1c(F)c(CN3CCN(c4ccc(C(=O)NC5CC5)nc4F)CC3)ccc12` [Example 126, 7-((4-(2-fluoro-6-(cyclopropylcarbamoyl)pyridin-3-yl)piperazin-1-yl)methyl)-6-fluoro-3-methylpyrazolo[1,5-a]quinoxalin-4(5H)-one], which IC50 [1] is on record?
Answer: 0.48 nM

Question: And the IC50 ([2]; Homo sapiens, MDA-MB-436, […])?
Answer: 4.5 nM

Question: What about the IC50 [3] of the same molecule?
Answer: 731 nM

Question: What about the IC50 [4] of the same molecule?
Answer: > 25000 nM

Question: Which results are given for `CNC(=O)c1ccc(N2CCN(Cc3ccc4c([nH]c(=O)c5c(C)cnn54)c3F)CC2)c(C#N)n1` [Example 128, 7-((4-(2-cyano-6-(methylcarbamoyl)pyridin-3-yl)piperazin-1-yl)methyl)-6-fluoro-3-methylpyrazolo[1,5-a]quinoxalin-4(5H)-one]?
Answer: IC50 [1]: 0.48 nM; IC50 ([2]; Homo sapiens, MDA-MB-436, […]): 1.58 nM; IC50 [3]: 2500 nM; IC50 [4]: > 30000 nM

Question: `CNC(=O)c1ccc(N2CCN(Cc3ccc4c([nH]c(=O)c5c(C)cnn54)c3F)CC2)c(Cl)n1` [Example 131, 7-((4-(2-chloro-6-(methylcarbamoyl)pyridin-3-yl)piperazin-1-yl)methyl)-6-fluoro-3-methylpyrazolo[1,5-a]quinoxalin-4(5H)-one] was tested. Which IC50 ([2]; Homo sapiens, MDA-MB-436, […]) did it give?
Answer: 3.12 nM

Question: What about the IC50 [4] of the same molecule?
Answer: > 30000 nM

Question: Which IC50 ([2]; Homo sapiens, MDA-MB-436, […]) does the source give for `[2H]C([2H])([2H])NC(=O)c1ccc(N2CCN(Cc3ccc4c([nH]c(=O)c5c(C)cnn54)c3F)CC2)c(F)n1` [Example 159, 6-fluoro-7-((4-(2-fluoro-6-((methyl-d3)carbamoyl)pyridin-3-yl)piperazin-1-yl)methyl)-3-methylpyrazolo[1,5-a]quinoxalin-4(5H)-one] here?
Answer: 3.91 nM

Question: And the IC50 [4]?
Answer: > 30000 nM

Question: `CNC(=O)c1ccc(N2CCN(Cc3ccc4c([nH]c(=O)c5c(F)cnn54)c3Cl)CC2)c(F)n1` [Example 192, 3-fluoro-7-((4-(2-fluoro-6-(methylcarbamoyl)pyridin-3-yl)piperazin-1-yl)methyl)-6-chloropyrazolo[1,5-a]quinoxalin-4(5H)-one] was tested. Which IC50 ([2]; Homo sapiens, MDA-MB-436, […]) did it give?
Answer: 5.58 nM

Question: What about the IC50 [4] of the same molecule?
Answer: > 30000 nM
